Test results: paper PMC11986510, “Duplexed CeTEAM drug biosensors reveal determinants of PARP inhibitor selectivity in cells” (The Journal of Biological Chemistry, 2025)
Read-outs that look alike come from different tables or passages of the source.

Legend:
U-2 OS cells [1] = assay: S/G2-phase cell cycle shift from median Hoechst 33342 intensity (trapping-like phenotype); assay type: cell-based, human; conditions: for S/G2 enrichment in words: median Hoechst intensity
PARP1 [2] = conditions: reported value, footnote b: cell-based assay; literature-derived, no reference given; cited from earlier work
PARP2 [3] = conditions: reported value, footnote b: cell-based assay; literature-derived, no reference given; cited from earlier work
PARP2 [4] = conditions: cited from earlier work
PARP1 [5] = conditions: cited from earlier work
PARP2 L269A-mCherry [6] = target: T1, PARP2 L269A-mCherry (Homo sapiens, UniProt Q9UGN5, L282A); assay: cell-based; assay type: cell-based
PARP2 L269A-mCherry [7] = target: T1, PARP2 L269A-mCherry; conditions: shNT and shHPF1 cells, 24 h
U-2 OS cells [8] = assay: cells; conditions: Homo sapiens, U2OS, 24 h
PARP2 L269A-mCherry [9] = target: T1, PARP2 L269A-mCherry; conditions: 24-h PARPi treatment
PARP2 [10] = conditions: biophysical measures; ref [26]; cited from earlier work
PARP2 [11] = target: PARP2 (Homo sapiens, UniProt Q9UGN5); conditions: 10 μM olaparib, CCRF-CEM lysate, 37-70 °C
PARP2 L269A-mCherry [12] = target: T1, PARP2 L269A-mCherry; assay type: cell-based; conditions: 10 μM, 16 h; hit = statistically significant (p < 0.05)
U-2 OS cells [13] = conditions: 24 h PARPi
PARP2 [14] = system: PARP2; design: method as in PMID 36961901; conditions: reported; ref [23]; cited from earlier work
[15] = Homo sapiens, U2OS, 24 h, read-out: S/G2 shift EC50
[16] = PARP2 L269A-mCherry EC50, CeTEAM stabilization, live U-2 OS dual biosensor cells, 24 h PARPi gradient, n = 3
[17] = reported value, footnote a: biochemical assay, literature-derived, no reference given, read-out: PARP2 IC50
[18] = median Hoechst intensity change, 24 h PARPi gradient, PARP1/2 biosensor U-2 OS cells, read-out: S/G2 shift EC50
[19] = reported value, footnote a: biochemical assay, literature-derived, no reference given, read-out: PARP1 IC50
[20] = CeTEAM stabilization, live U-2 OS dual biosensor cells, 24 h PARPi gradient, n = 3, read-out: PARP2 L269A-mCherry EC50
[21] = read-out: S/G2 shift EC50, shHPF1
[22] = read-out: S/G2 shift EC50, shNT
[23] = Homo sapiens, U2OS, 24 h, read-out: S/G2 shift EC50 (text)

T1 sequence (Q9UGN5 other isoform, or with tags, fused parts or gaps L269A): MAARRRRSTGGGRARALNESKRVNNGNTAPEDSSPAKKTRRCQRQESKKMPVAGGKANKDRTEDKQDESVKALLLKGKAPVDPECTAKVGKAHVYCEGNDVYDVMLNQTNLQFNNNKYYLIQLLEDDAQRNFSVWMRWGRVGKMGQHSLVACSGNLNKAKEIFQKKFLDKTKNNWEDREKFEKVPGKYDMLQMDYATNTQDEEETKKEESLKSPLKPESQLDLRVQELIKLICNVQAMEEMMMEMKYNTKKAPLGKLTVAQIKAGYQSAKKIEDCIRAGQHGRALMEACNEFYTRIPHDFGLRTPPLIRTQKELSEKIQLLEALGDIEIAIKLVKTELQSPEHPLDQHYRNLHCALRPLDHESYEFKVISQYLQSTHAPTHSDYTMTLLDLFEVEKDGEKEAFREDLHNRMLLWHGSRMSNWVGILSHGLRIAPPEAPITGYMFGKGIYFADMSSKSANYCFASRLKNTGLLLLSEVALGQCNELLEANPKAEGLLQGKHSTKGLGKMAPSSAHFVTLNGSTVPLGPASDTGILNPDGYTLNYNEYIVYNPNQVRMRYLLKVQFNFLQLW
Sequence of PARP2 (Homo sapiens, UniProt Q9UGN5) (Q9UGN5 whole entry): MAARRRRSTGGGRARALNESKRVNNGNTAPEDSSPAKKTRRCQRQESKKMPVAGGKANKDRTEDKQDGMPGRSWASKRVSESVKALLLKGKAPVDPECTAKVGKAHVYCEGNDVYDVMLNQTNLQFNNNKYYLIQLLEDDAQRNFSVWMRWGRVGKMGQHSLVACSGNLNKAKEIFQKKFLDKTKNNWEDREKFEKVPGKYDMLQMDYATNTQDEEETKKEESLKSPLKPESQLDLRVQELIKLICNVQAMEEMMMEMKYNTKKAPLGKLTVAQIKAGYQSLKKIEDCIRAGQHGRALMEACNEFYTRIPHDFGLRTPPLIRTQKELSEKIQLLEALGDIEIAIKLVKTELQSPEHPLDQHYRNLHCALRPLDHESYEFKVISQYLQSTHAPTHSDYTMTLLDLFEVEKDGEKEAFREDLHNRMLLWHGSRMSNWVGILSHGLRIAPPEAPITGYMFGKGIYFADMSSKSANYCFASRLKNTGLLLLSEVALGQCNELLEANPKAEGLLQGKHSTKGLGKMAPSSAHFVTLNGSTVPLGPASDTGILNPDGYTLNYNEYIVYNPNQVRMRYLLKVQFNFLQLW

For `NC(=O)c1cccc2nc(-c3ccc([C@@H]4CCCN4)cc3F)[nH]c12` [A-966492], the EC50 (U-2 OS cells [1]; [15]) is given as 41.6 nM, the IC50 (PARP1 [2]) is given as 1 nM and the IC50 (PARP2 [3]) is given as 1.5 nM.

In the case of `O=C(c1cc(Cc2n[nH]c(=O)c3ccccc23)ccc1F)N1CC(CNC2CC2)C1` [Venadaparib], the IC50 (PARP2 [4]; biochemical inhibition data, ref [30], [31], read-out: Biochemical inhibition of PARP2) is listed as 3 nM, the EC50 (U-2 OS cells [1]; [15]) is listed as 197 nM and the IC50 (PARP1 [5]; biochemical inhibition data, ref [30], [31], read-out: Biochemical inhibition of PARP1) is listed as 0.8 nM. It also gave an EC50 (PARP2 L269A-mCherry [6]; [16]) of 5.94 nM and an EC50 (PARP2 L269A-mCherry [6]; PARP2 L269A-mCherry stabilization EC50, live-cell CeTEAM, 24 h) of 5.94 nM.

With `NC(=O)c1ccc(I)c([N+](=O)[O-])c1` [Iniparib] the “PARP2 L269A-mCherry biosensor response irrespective of HPF1 levels” value (PARP2 L269A-mCherry [7]) was “unaffected” and the “PARP2 L269A-mCherry stabilization in words” value (PARP2 L269A-mCherry [6]; concentration gradient, 24 h) was “inactive”.

For `O=c1[nH]nc2c3c(cccc13)N=C(CN1Cc3ccccc3C1)N2` [E7449], the IC50 (PARP2 [4]; [17]) is listed as […] and the EC50 (U-2 OS cells [1]; [18]) is listed as 3970 nM.

For `NC(=O)c1cccc(N)c1` [3-AB, 3-aminobenzamide], the “S/G2 enrichment in words” value (U-2 OS cells [1]; 24 h) is listed as “no observable activity” and the IC50 (PARP1 [2]) is listed as […].

In the case of `O=c1[nH]c(SCCN2CCN(c3ccccn3)CC2)nc2ccccc12` [MC2050], the IC50 (PARP2 [4]; [17]) is given as 549 nM, the IC50 (PARP1 [5]; [19]) is given as 9.3 nM and the EC50 (PARP2 L269A-mCherry [6]; [20]) is given as 2500 nM.

In the case of `Oc1cccc2c(O)nccc12` [1,5-Isoquinolinediol], the EC50 (PARP2 L269A-mCherry [6]; PARP2 L269A-mCherry EC50) is reported as 1000 nM.

For `NC(=O)c1cc(F)cc2c1C(=O)N(C1CCN(C3CCC(F)(F)CC3)CC1)C2` [NMS-P118, 2-[1-(4,4-Difluorocyclohexyl)piperidin-4-yl]-6-fluoro-3-oxo-2,3-dihydro-1H-isoindole-4-carboxamide], the IC50 (PARP2 [4]; [17]) is given as 1390 nM, the EC50 (U-2 OS cells [1]; [15]) is given as 5880 nM and the IC50 (PARP1 [5]; [19]) is given as 9 nM.

With `NC(=O)c1cccc2cn(-c3ccc([C@@H]4CCCNC4)cc3)nc12` [Niraparib, 2-{4-[(3S)-piperidin-3-yl]phenyl}-2H-indazole-7-carboxamide] the EC50 (U-2 OS cells [8]; [21]) was 1.74 nM, the EC50 (U-2 OS cells [8]; [22]) was 7.85 nM and the “PARP2 L269A-mCherry stabilization by Western blot” value (PARP2 L269A-mCherry [9]) was “stabilized PARP2 L269A significantly worse than PARP1 L713F”. The “Binding to PARP2 worse than to PARP1” value (PARP2 [10]) was roughly 50 fold.

In the case of `O=C(c1cc(Cc2n[nH]c(=O)c3ccccc23)ccc1F)N1CCN(C(=O)C2CC2)CC1` [Olaparib], the EC50 (U-2 OS cells [8]; [21]) is given as 1.89 nM, the EC50 (U-2 OS cells [8]; [22]) is given as 14.4 nM and the IC50 (PARP2 [4]; [17]) is given as 1 nM. The EC50 (U-2 OS cells [1]; [15]) was 25.7 nM and the “Endogenous PARP2 stability by CETSA” value (PARP2 [11]) was “negligible shifts”.

With `Cc1nc(Nc2[nH]nc3c2CN(C(=O)N[C@H](CN(C)C)c2ccccc2)C3(C)C)c2sccc2n1` [PF-3758309] the “PARP2 L269A-mCherry abundance change versus DMSO control” value (PARP2 L269A-mCherry [12]) was “also affected PARP2 L269A-mCherry”.

For `Cn1ncnc1[C@H]1c2n[nH]c(=O)c3cc(F)cc(c23)N[C@@H]1c1ccc(F)cc1` [Talazoparib], the EC50 (U-2 OS cells [8]; [21]) is listed as 0.09 nM, the EC50 (U-2 OS cells [8]; [22]) is listed as 0.29 nM and the IC50 (PARP2 [4]; [17]) is listed as […]. It also gave an EC50 (U-2 OS cells [1]; [15]) of 0.278 nM and an EC50 (U-2 OS cells [1]; [23]) of 0.28 nM.

`C[C@]1(c2nc3c(C(N)=O)cccc3[nH]2)CCCN1` [Veliparib] showed an EC50 (U-2 OS cells [13]; read-out: S/G2 shift EC50, shHPF1, HPF1 knockdown) of 55 nM, an EC50 (U-2 OS cells [13]; read-out: S/G2 shift EC50, shNT, control hairpin shNT) of 709 nM and an EC50 (U-2 OS cells [1]; [18]) of 528 nM.

In the case of `COC1CCN(C(=O)c2cc(Cc3n[nH]c(=O)c4ccccc34)ccc2F)CC1` [AZD2461], the IC50 (PARP2 [4]; [17]) is listed as 2 nM, the EC50 (U-2 OS cells [1]; [15]) is listed as 146 nM and the IC50 (PARP1 [5]; [19]) is listed as 5 nM. It also gave an EC50 (PARP2 L269A-mCherry [6]; [16]) of 36.3 nM.

For `O=C(Nc1c[nH]nc1-c1nc2ccc(CN3CCOCC3)cc2[nH]1)NC1CC1` [AT9283], the “PARP2 L269A-mCherry abundance change versus DMSO control” value (PARP2 L269A-mCherry [12]) was “modest but significant effect”.

For `N#Cc1cccnc1N1CCN(C(=O)c2cccc(Cc3n[nH]c(=O)c4ccccc34)c2)CC1` [AZ9482], the EC50 (U-2 OS cells [1]; [15]) is listed as 0.351 nM, the EC50 (U-2 OS cells [1]; [23]) is listed as 0.35 nM and the IC50 (PARP1 [2]) is listed as […]. The IC50 (PARP2 [3]) was 1 nM.

For `O=C(c1cc(Cn2c(=O)[nH]c(=O)c3c(F)cccc32)ccc1F)N1CCN(c2ncccn2)CC1` [Senaparib], the IC50 (PARP2 [4]; [17]) is listed as 1.6 nM, the EC50 (U-2 OS cells [1]; [15]) is listed as 0.398 nM and the EC50 (U-2 OS cells [1]; [23]) is listed as 0.4 nM. For the same molecule, the IC50 (PARP1 [5]; [19]) was 0.48 nM, the EC50 (PARP2 L269A-mCherry [6]; PARP2 L269A-mCherry EC50) was 5.26 nM and the EC50 (PARP2 L269A-mCherry [6]; PARP2 L269A-mCherry stabilization EC50) was 5.3 nM.

In the case of `CC(C)(O)c1ccc(-c2nc3c(F)cc(F)cc3c(=O)[nH]2)cc1` [Tankyrase-IN-2], the “S/G2 enrichment in words” value (U-2 OS cells [1]; 24 h) is given as “no observable activity”, the IC50 (PARP1 [5]; [19]) is given as 710 nM and the EC50 (PARP2 L269A-mCherry [6]; [20]) is given as 13200 nM.

In the case of `CN(C)Cc1ccc(-c2nc3cccc4c3n2CCNC4=O)cc1` [AG14361], the EC50 (U-2 OS cells [1]; [15]) is given as 1120 nM, the IC50 (PARP1 [2]) is given as 14 nM and the EC50 (PARP2 L269A-mCherry [6]; [16]) is given as 84 nM.

`O=C(c1cc(Cc2n[nH]c(=O)c3ccccc23)ccc1F)N1CCn2nc(C(F)(F)F)nc2C1` [Fluzoparib] gave an EC50 (U-2 OS cells [1]; [15]) of 46300 nM and an EC50 (PARP2 L269A-mCherry [6]; [16]) of 27.3 nM.

With bisindolylmaleimide I the “PARP2 L269A-mCherry abundance change versus DMSO control” value (PARP2 L269A-mCherry [12]) was “significantly decreased”.

For `CCc1cc2ncc(CN3CCN(c4ccc(C(=O)NC)nc4)CC3)cc2[nH]c1=O` [AZD5305], the IC50 (PARP2 [4]; [17]) is listed as 1400 nM, the EC50 (U-2 OS cells [1]; [15]) is listed as 60.7 nM and the EC50 (U-2 OS cells [1]; [23]) is listed as roughly 61 nM. The IC50 (PARP1 [5]; [19]) was […] and the “Concentration at which PARP2 is allosterically trapped onto DNA” value (PARP2 [14]) was […].

For `C[C@]12CCCN1CC1=NNC(=O)c3cc(F)cc4[nH]c2c1c34` [Pamiparib], the IC50 (PARP2 [4]; [17]) is listed as 0.5 nM, the EC50 (U-2 OS cells [1]; [15]) is listed as 2.96 nM and the EC50 (PARP2 L269A-mCherry [6]; [16]) is listed as 1.47 nM.

In the case of `Cc1cc(Nc2nc(N[C@@H](C)c3ccc(F)cc3)c(C#N)cc2F)[nH]n1` [AZ960], the “PARP2 L269A-mCherry abundance change versus DMSO control” value (PARP2 L269A-mCherry [12]) is reported as “also affected PARP2 L269A-mCherry”.

`CNCc1ccc(-c2[nH]c3cc(F)cc4c3c2CCNC4=O)cc1` [Rucaparib] gave an EC50 (U-2 OS cells [1]; [15]) of 23.7 nM.

In the case of `CN(C)CC(=O)Nc1ccc2[nH]c(=O)c3ccccc3c2c1` [PJ34], the IC50 (PARP2 [4]; [17]) is listed as […], the EC50 (U-2 OS cells [1]; [18]) is listed as 3750 nM and the IC50 (PARP1 [5]; [19]) is listed as 110 nM. The “PARP2 cellular EC50 worse than reported IC50” value (PARP2 L269A-mCherry [6]; CeTEAM EC50 compared to reported IC50) was greater than 10 fold.

In the case of `Cn1cccc1/C=C1\C(=O)NC(=O)c2ccccc21` [BYK204165], the IC50 (PARP2 [4]; [17]) is listed as 4170 nM and the EC50 (PARP2 L269A-mCherry [6]; [20]) is listed as 1670 nM.

For `CNCc1ccc(-c2cc3cc(F)cc(C(N)=O)c3o2)cc1` [Mefuparib], the IC50 (PARP2 [4]; [17]) is given as 1.9 nM, the EC50 (U-2 OS cells [1]; [15]) is given as 2.36 nM and the IC50 (PARP1 [5]; [19]) is given as 3.2 nM. The EC50 (PARP2 L269A-mCherry [6]; [16]) was 91.6 nM.
